# In patent publication US9006487B2, “Amine-containing lipids and uses thereof” (Massachusetts Institute of Technology, priority 2005, dated 2015):
# System: cos-7 cells
# Test: DNA transfection: luciferase expression relative to Lipofectamine 2000
# Format: cell-based
# Details: lipid/DNA 2.5 w/w; 300 ng Luciferase DNA per well; luciferase assay after 48 hours
# In short: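 Lipid/DNA complexes, 300 ng luciferase DNA per well at 2.5-25 w/w lipid:DNA, were formed in sodium acetate/Optimem and added to overnight-seeded cos-7 cells. Luciferase was measured by Bright-Glo luminescence after 48 hours and quantified against an enzyme standard curve. Values are expressed as % of Lipofectamine 2000 at 2.5 w/w.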
row,Structure (SMILES),Luciferase expression as a percentage of that achieved using Lipofectamine 2000 [%]
1,CCCCCCCCCCCCCCOC(=O)CCN(CCCCO)CCC(=O)OCCCCCCCCCCCCCC [LF28],0.1
2,CCCCCCCCCCCCCCOC(=O)CCN(CCCCCO)CCC(=O)OCCCCCCCCCCCCCC [LF32],0.1
3,CCCCCCCCCCCCCCOC(=O)CCN(CCC(=O)OCCCCCCCCCCCCCC)CC(C)(C)CO [LF33],0.1
4,CCCCCCCCCCCCCCOC(=O)CCN(CCC(=O)OCCCCCCCCCCCCCC)C(CC)(CO)CO [LF34],0.1
5,CCCCCCCCCCCCCCOC(=O)CCN(CCCCCCO)CCC(=O)OCCCCCCCCCCCCCC [LF36],0.1
6,CCCCCCCCCCCCCCOC(=O)CCN(CCC(=O)OCCCCCCCCCCCCCC)C1CCC(O)CC1 (stereo not drawn) [LF38],0.8
7,CCCCCCCCCCCCCCOC(=O)CCN(C)CCN(C)CCC(=O)OCCCCCCCCCCCCCC [LF60],0.4
8,CCCCCCCCCCCCCCOC(=O)CCN(CC)CCN(CC)CCC(=O)OCCCCCCCCCCCCCC [LF61],0.1

# Same assay, conditions: lipid/DNA 5 w/w; 300 ng Luciferase DNA per well; luciferase assay after 48 hours
row,Structure (SMILES),Luciferase expression as a percentage of that achieved using Lipofectamine 2000 [%]
1,CCCCCCCCCCCCCCOC(=O)CCN(CCCCO)CCC(=O)OCCCCCCCCCCCCCC [LF28],0.1
2,CCCCCCCCCCCCCCOC(=O)CCN(CCCCCO)CCC(=O)OCCCCCCCCCCCCCC [LF32],0.1
3,CCCCCCCCCCCCCCOC(=O)CCN(CCC(=O)OCCCCCCCCCCCCCC)CC(C)(C)CO [LF33],0.1
4,CCCCCCCCCCCCCCOC(=O)CCN(CCC(=O)OCCCCCCCCCCCCCC)C(CC)(CO)CO [LF34],0.3
5,CCCCCCCCCCCCCCOC(=O)CCN(CCCCCCO)CCC(=O)OCCCCCCCCCCCCCC [LF36],0.1
6,CCCCCCCCCCCCCCOC(=O)CCN(CCC(=O)OCCCCCCCCCCCCCC)C1CCC(O)CC1 (stereo not drawn) [LF38],0.9
7,CCCCCCCCCCCCCCOC(=O)CCN(C)CCN(C)CCC(=O)OCCCCCCCCCCCCCC [LF60],0.4
8,CCCCCCCCCCCCCCOC(=O)CCN(CC)CCN(CC)CCC(=O)OCCCCCCCCCCCCCC [LF61],0.1

# Same assay, conditions: lipid/DNA 10 w/w; 300 ng Luciferase DNA per well; luciferase assay after 48 hours
row,Structure (SMILES),Luciferase expression as a percentage of that achieved using Lipofectamine 2000 [%]
1,CCCCCCCCCCCCCCOC(=O)CCN(CCCCO)CCC(=O)OCCCCCCCCCCCCCC [LF28],0.1
2,CCCCCCCCCCCCCCOC(=O)CCN(CCCCCO)CCC(=O)OCCCCCCCCCCCCCC [LF32],0.2
3,CCCCCCCCCCCCCCOC(=O)CCN(CCC(=O)OCCCCCCCCCCCCCC)CC(C)(C)CO [LF33],0.1
4,CCCCCCCCCCCCCCOC(=O)CCN(CCC(=O)OCCCCCCCCCCCCCC)C(CC)(CO)CO [LF34],1.1
5,CCCCCCCCCCCCCCOC(=O)CCN(CCCCCCO)CCC(=O)OCCCCCCCCCCCCCC [LF36],0.1
6,CCCCCCCCCCCCCCOC(=O)CCN(CCC(=O)OCCCCCCCCCCCCCC)C1CCC(O)CC1 (stereo not drawn) [LF38],0.9
7,CCCCCCCCCCCCCCOC(=O)CCN(C)CCN(C)CCC(=O)OCCCCCCCCCCCCCC [LF60],0.5
8,CCCCCCCCCCCCCCOC(=O)CCN(CC)CCN(CC)CCC(=O)OCCCCCCCCCCCCCC [LF61],0.1

# Same assay, conditions: lipid/DNA 15 w/w; 300 ng Luciferase DNA per well; luciferase assay after 48 hours
row,Structure (SMILES),Luciferase expression as a percentage of that achieved using Lipofectamine 2000 [%]
1,CCCCCCCCCCCCCCOC(=O)CCN(CCCCO)CCC(=O)OCCCCCCCCCCCCCC [LF28],0.2
2,CCCCCCCCCCCCCCOC(=O)CCN(CCCCCO)CCC(=O)OCCCCCCCCCCCCCC [LF32],0.1
3,CCCCCCCCCCCCCCOC(=O)CCN(CCC(=O)OCCCCCCCCCCCCCC)CC(C)(C)CO [LF33],0.1
4,CCCCCCCCCCCCCCOC(=O)CCN(CCC(=O)OCCCCCCCCCCCCCC)C(CC)(CO)CO [LF34],0.5
5,CCCCCCCCCCCCCCOC(=O)CCN(CCCCCCO)CCC(=O)OCCCCCCCCCCCCCC [LF36],0.1
6,CCCCCCCCCCCCCCOC(=O)CCN(CCC(=O)OCCCCCCCCCCCCCC)C1CCC(O)CC1 (stereo not drawn) [LF38],0.9
7,CCCCCCCCCCCCCCOC(=O)CCN(C)CCN(C)CCC(=O)OCCCCCCCCCCCCCC [LF60],0.5
8,CCCCCCCCCCCCCCOC(=O)CCN(CC)CCN(CC)CCC(=O)OCCCCCCCCCCCCCC [LF61],0.1

# Same assay, conditions: lipid/DNA 20 w/w; 300 ng Luciferase DNA per well; luciferase assay after 48 hours
row,Structure (SMILES),Luciferase expression as a percentage of that achieved using Lipofectamine 2000 [%]
1,CCCCCCCCCCCCCCOC(=O)CCN(CCCCO)CCC(=O)OCCCCCCCCCCCCCC [LF28],0.3
2,CCCCCCCCCCCCCCOC(=O)CCN(CCCCCO)CCC(=O)OCCCCCCCCCCCCCC [LF32],0.4
3,CCCCCCCCCCCCCCOC(=O)CCN(CCC(=O)OCCCCCCCCCCCCCC)CC(C)(C)CO [LF33],0.1
4,CCCCCCCCCCCCCCOC(=O)CCN(CCC(=O)OCCCCCCCCCCCCCC)C(CC)(CO)CO [LF34],0.2
5,CCCCCCCCCCCCCCOC(=O)CCN(CCCCCCO)CCC(=O)OCCCCCCCCCCCCCC [LF36],0.1
6,CCCCCCCCCCCCCCOC(=O)CCN(CCC(=O)OCCCCCCCCCCCCCC)C1CCC(O)CC1 (stereo not drawn) [LF38],0.8
7,CCCCCCCCCCCCCCOC(=O)CCN(C)CCN(C)CCC(=O)OCCCCCCCCCCCCCC [LF60],0.5
8,CCCCCCCCCCCCCCOC(=O)CCN(CC)CCN(CC)CCC(=O)OCCCCCCCCCCCCCC [LF61],0.1

# Same assay, conditions: lipid/DNA 25 w/w; 300 ng Luciferase DNA per well; luciferase assay after 48 hours
row,Structure (SMILES),Luciferase expression as a percentage of that achieved using Lipofectamine 2000 [%]
1,CCCCCCCCCCCCCCOC(=O)CCN(CCCCO)CCC(=O)OCCCCCCCCCCCCCC [LF28],0.4
2,CCCCCCCCCCCCCCOC(=O)CCN(CCCCCO)CCC(=O)OCCCCCCCCCCCCCC [LF32],0.4
3,CCCCCCCCCCCCCCOC(=O)CCN(CCC(=O)OCCCCCCCCCCCCCC)CC(C)(C)CO [LF33],0.1
4,CCCCCCCCCCCCCCOC(=O)CCN(CCC(=O)OCCCCCCCCCCCCCC)C(CC)(CO)CO [LF34],0.3
5,CCCCCCCCCCCCCCOC(=O)CCN(CCCCCCO)CCC(=O)OCCCCCCCCCCCCCC [LF36],0.1
6,CCCCCCCCCCCCCCOC(=O)CCN(CCC(=O)OCCCCCCCCCCCCCC)C1CCC(O)CC1 (stereo not drawn) [LF38],1.0
7,CCCCCCCCCCCCCCOC(=O)CCN(C)CCN(C)CCC(=O)OCCCCCCCCCCCCCC [LF60],0.5
8,CCCCCCCCCCCCCCOC(=O)CCN(CC)CCN(CC)CCC(=O)OCCCCCCCCCCCCCC [LF61],0.1
